Test results from DBAASP.
In brackets after ≈: the same amount, converted by molar mass.

Key:
Experiment in all cases: ≥ marks a high value that may be exact or a test limit, other limits are often not marked, values filed in µg/mL are converted to µM
[1] = tested on: Enterococcus faecalis ATCC 29212
[2] = tested on: Escherichia coli ATCC 25922
[3] = tested on: Salmonella enterica subsp. enterica serovar Typhimurium ATCC 14028
[4] = tested on: Acinetobacter baumannii ATCC 19606
[5] = tested on: Staphylococcus aureus ATCC 29213
[6] = tested on: Pseudomonas aeruginosa ATCC 27853
[7] = tested on: Staphylococcus aureus ATCC 25923
[8] = tested on: Staphylococcus epidermidis ATCC 12228
Staphylococcus aureus = tested on: Staphylococcus aureus

Q: What does the source list for CC[C@H](C)[C@H](NC(=O)[C@H](CCCCN)NC(=O)CNC(=O)CNC(=O)[C@H](CC(C)C)NC(=O)[C@H](CC(N)=O)NC(=O)[C@H](C)NC(=O)[C@H](C)NC(=O)[C@@H](N)CCC(=O)O)C(=O)N[C@@H](CC(C)C)C(=O)N[C@@H](CCC(=O)O)C(=O)N[C@@H](CCC(=O)O)C(=O)N[C@@H](CCCCN)C(=O)N[C@@H](CCCCN)C(=O)N[C@@H](CC(C)C)C(=O)N[C@@H](CO)C(=O)N[C@@H](CCCN=C(N)N)C(=O)N[C@@H](CC(C)C)C(=O)N1CCC[C@H]1C(=O)N1CCC[C@H]1C(=O)N[C@@H](CO)C(=O)N[C@@H](Cc1cnc[nH]1)C(=O)N[C@@H](CC(C)C)C(=O)O [EAANLGGKILEEKKLSRLPPSHL]?
A: MIC [1]: > 200 µM; MIC [2]: > 200 µM; MIC [3]: > 200 µM

Q: CC[C@H](C)[C@H](NC(=O)[C@H](CCCCN)NC(=O)[C@H](CO)NC(=O)[C@H](CC(C)C)NC(=O)[C@H](CC(C)C)NC(=O)CNC(=O)[C@H](C)NC(=O)[C@@H](NC(=O)[C@H](C)NC(=O)CNC(=O)[C@@H](NC(=O)[C@@H](N)Cc1ccccc1)[C@@H](C)CC)C(C)C)C(=O)N[C@@H](Cc1ccccc1)C(N)=O [FIGAVAGLLSKIF] was tested. Which MIC [4] did it give?
A: > 29.9 µM

Q: What about the MIC [5] of the same compound?
A: 37.4 µM (≈ 50 µg/mL)

Q: What does the source list for CC(C)C[C@H](NC(=O)[C@H](CC(C)C)NC(=O)[C@H](CCCCN)NC(=O)[C@H](CCCCN)NC(=O)[C@H](CC(C)C)NC(=O)CNC(=O)[C@H](CCCCN)NC(=O)[C@H](CC(C)C)NC(=O)[C@@H](N)Cc1ccccc1)C(N)=O [FLKGLKKLL]?
A: MIC [4]: > 121 µM; MIC [6]: 7.55 µM (≈ 7.99 µg/mL); MIC [2]: 121 µM (≈ 128 µg/mL); MIC [7]: 121 µM (≈ 128 µg/mL)

Q: With CSCC[C@H](NC(=O)[C@H](CCCCN)NC(=O)[C@H](CC(C)C)NC(=O)[C@@H](N)Cc1ccccc1)C(=O)N[C@@H](CC(C)C)C(=O)N[C@@H](CCCCN)C(=O)N[C@@H](CCCCN)C(=O)N[C@@H](CC(C)C)C(=O)N[C@@H](CC(C)C)C(N)=O [FLKMLKKLL] as the compound, how does the MIC [4] read?
A: 14.1 µM (≈ 16 µg/mL)

Q: And the MIC [6]?
A: 7.06 µM (≈ 7.99 µg/mL)

Q: And the MIC [2]?
A: 28.2 µM (≈ 32 µg/mL)

Q: What about the MIC [7] of the same compound?
A: 14.1 µM (≈ 16 µg/mL)

Q: For CC[C@H](C)[C@H](NC(=O)CN)C(=O)N[C@@H](CCCCN)C(=O)N[C@@H](CCCCN)C(=O)N[C@@H](Cc1c[nH]c2ccccc12)C(=O)N[C@@H](CC(C)C)C(=O)N[C@@H](Cc1cnc[nH]1)C(=O)N[C@@H](CO)C(=O)N1CCC[C@H]1C(=O)N[C@@H](CCCCN)C(=O)N[C@@H](CCCCN)C(=O)N[C@@H](Cc1ccccc1)C(=O)N1CCC[C@H]1C(=O)N[C@@H](CCCCN)C(=O)N[C@@H](CCCCN)C(=O)N[C@@H](Cc1ccccc1)C(=O)N[C@H](C(=O)N[C@@H](CCCCN)C(=O)N[C@@H](CCCCN)C(=O)N[C@H](C(=O)N[C@@H](CCSC)C(=O)N[C@@H](CC(N)=O)C(=O)N[C@@H](CO)C(N)=O)[C@@H](C)CC)C(C)C [GIKKWLHSPKKFPKKFVKKIMNS], which MIC [2] is on record?
A: 10 µM (≈ 27.7 µg/mL)

Q: What about the MIC [8] of the same compound?
A: 2.5 µM (≈ 6.92 µg/mL)

Q: With CC[C@H](C)[C@H](NC(=O)[C@H](Cc1ccccc1)NC(=O)[C@@H]1CCCN1C(=O)[C@@H](NC(=O)[C@@H](N)CC(C)C)C(C)C)C(=O)NCC(=O)N[C@@H](CCCN=C(N)N)C(=O)N[C@H](C(=O)N[C@@H](CC(C)C)C(=O)NCC(=O)NCC(=O)N[C@@H](CC(C)C)C(=O)N[C@@H](CC(C)C)C(=O)N[C@@H](C)C(=O)N[C@@H](CCCN=C(N)N)C(=O)N[C@@H](Cc1ccccc1)C(N)=O)[C@@H](C)O [LVPFIGRTLGGLLARF] as the compound, how does the MIC [4] read?
A: > 64 µM

Q: And the MIC [1]?
A: > 64 µM

Q: And the MIC [5]?
A: 16 µM (≈ 27.7 µg/mL)

Q: What about the MIC [2] of the same compound?
A: > 64 µM

Q: And the MIC (Staphylococcus aureus)?
A: 64 µM (≈ 111 µg/mL)

Q: Which results are given for CC(C)C[C@H](NC(=O)[C@H](CC(C)C)NC(=O)[C@H](CCCCN)NC(=O)[C@@H](N)Cc1c[nH]c2ccccc12)C(=O)N[C@@H](CO)C(=O)N[C@@H](CCCCN)C(=O)N[C@@H](C)C(=O)N[C@@H](CCC(N)=O)C(=O)N[C@@H](CCC(=O)O)C(=O)N[C@@H](CCCCN)C(=O)N[C@@H](Cc1ccccc1)C(=O)NCC(=O)N[C@@H](CCCCN)C(=O)N[C@@H](CC(N)=O)C(=O)N[C@@H](CCCCN)C(=O)N[C@@H](CO)C(=O)N[C@@H](CCCN=C(N)N)C(=O)N[C@@H](CS)C(N)=O [WKLLSKAQEKFGKNKSRC]?
A: MIC [6]: 62 µM (≈ 133 µg/mL); MIC [2]: 62 µM (≈ 133 µg/mL); MIC [8]: 7.69 µM (≈ 16.5 µg/mL); MIC [7]: 62 µM (≈ 133 µg/mL)
